# In US9167822B2, “Antifungal compositions” (DSM IP ASSETS B.V., priority 2012, dated 2015):
# Where “and” joins values, the source holds several entries; their conditions need not be identical. Equal values may be shown once.
# How the values were obtained:
# [1] = system: Botrytis cinerea; assay: Treatment of strawberries: wounded, inoculated with Botrytis cinerea, then dipped in antifungal composition; format: in vivo
# Protocol: (§1) Ten fresh, organic strawberries were used per treatment. Each strawberry was wounded with a 0.5 mm long cut and each wound was inoculated with 10 μl of a Botrytis cinerea suspension containing 1×10^5 of spores/ml. […] The pH of the compositions was 4. A composition without natamycin or bixafen was used as control. The treated strawberries were incubated in a closed box in the dark at 20° C.
# (§2) During incubation, mould growth on the strawberries was assessed in a twofold manner: (i) the number of moulded strawberries per total of 10 strawberries was counted; and (ii) the antifungal activity (in %) of the individual and combined active ingredients was determined by calculating the reduction in mould growth observed on the strawberries treated with the antifungal composition in comparison to the mould growth on the strawberries treated with the control composition. The expected antifungal activity (E in %) of the combined antifungal composition comprising both active ingredients was calculated according to the Colby equation (Colby, 1967): E=X+Y−[(X·Y)/100] wherein X and Y are the observed antifungal activities (in %) of the individual active ingredients X and Y, respectively. If the observed antifungal activity (O in %) of the combination exceeds the expected antifungal activity (E in %) of the combination and the synergy factor O/E is thus >1.0, the combined application of the active ingredients leads to a synergistic antifungal effect.
# The treated strawberries were assessed on mould growth. The antifungal activity (in %) of the individual and combined active ingredients was determined according to the method described in Example 3. […]
# [2] = system: Botrytis cinerea; assay: Treatment of strawberries: wounded, dipped in antifungal composition, then inoculated with Botrytis cinerea; format: in vivo; conditions: 1000 ppm bixafen or both
# Protocol: as §1, §2
# After treatment, each strawberry was inoculated with 10 μl of a Botrytis cinerea suspension containing 1×10^5 of spores/ml. The treated strawberries were assessed on mould growth according to the two methods described in Example 3.
# [3] = system: Penicillium italicum; assay: Treatment of mandarins wounded and inoculated with Penicillium italicum, then dipped; format: in vivo
# Protocol: (§3) Ten fresh, organic mandarins were used per treatment. The peel of each mandarin was wounded once using a cork borer according to the method described by de Lapeyre de Bellaire and Dubois (1987). Subsequently, each wound was inoculated with 10 μl of a Penicillium italicum suspension containing 1×10^5 of spores/ml. […] The pH of the compositions was 4.
# The treated mandarins were incubated in a closed box in the dark at 20° C. and assessed on mould growth during incubation.
# [4] = system: Penicillium italicum; assay: Treatment of apples wounded and inoculated with Penicillium italicum, then dipped; format: in vivo; conditions: for Number of moulded apples/total number of 10 apples: 500 ppm natamycin; for Number of moulded apples per total of 10 apples: 250 ppm natamycin
# Protocol: as §3, with “apples” for “mandarins”, “Each apple” for “The peel of each mandarin”, “1×10^6” for “1×10^5”, “4. A composition without natamycin or bixafen was used as control. The treated apples were incubated in a closed box in the dark at 20° C. […]” for “4.”
# During incubation, the treated apples were assessed on mould growth according to the two methods described in Example 3. […]
# [5] = system: Penicillium italicum; assay: In vitro antifungal activity, 96-well microtiter plates; format: cell-based; conditions: 25° C., day 10, 1.25 ppm natamycin, 25 ppm bixafen or both
# Protocol: Subsequently, 100 μl of a Botrytis cinerea suspension prepared in PCB medium was used to inoculated each well with 2.5×10^3 spores/ml.
# After incubation of the microtiter plates at 25° C., the in vitro antifungal activity (%) of the individual active ingredients was assessed by calculating the reduction in mould growth observed in the presence of the active ingredient in comparison to the mould growth observed in the absence of the active ingredient. The expected antifungal activity (E in %) of the active ingredient combination was calculated according to the Colby equation (Colby, 1967): E=X+Y−[(X·Y)/100] wherein X and Y are the observed antifungal activities (in %) of the individual active ingredients X and Y, respectively. If the observed antifungal activity (O in %) of the combination exceeds the expected antifungal activity (E in %) of the combination and the resulting synergy factor O/E is thus >1.0, the combined application of the active ingredients leads to a synergistic antifungal effect.
# Furthermore, Penicillium italicum was used for inoculation.
# [6] = day 3, 500 ppm natamycin, 2000 ppm bixafen or both
# [7] = day 4, 250 ppm natamycin, 250 ppm bixafen or both
# [8] = day 4, 250 ppm natamycin, 500 ppm bixafen or both
# [9] = day 4, 500 ppm natamycin, 2000 ppm bixafen or both
# [10] = day 6, 250 ppm natamycin, 250 ppm bixafen or both
# [11] = day 6, 250 ppm natamycin, 500 ppm bixafen or both
# [12] = day 6, 500 ppm natamycin, 2000 ppm bixafen or both
# [13] = day 7, 250 ppm natamycin, 250 ppm bixafen or both
# [14] = day 7, 250 ppm natamycin, 500 ppm bixafen or both
# [15] = day 9, 250 ppm natamycin, 500 ppm bixafen or both
# [16] = day 9, 500 ppm natamycin, 2000 ppm bixafen or both
# [17] = day 6, 500 ppm natamycin, 1000 ppm bixafen or both
# [18] = day 9, 500 ppm natamycin, 1000 ppm bixafen or both
# [19] = day 11, 500 ppm natamycin, 2000 ppm bixafen or both
# [20] = day 14, 500 ppm natamycin, 1000 ppm bixafen or both
# [21] = day 14, 500 ppm natamycin, 2000 ppm bixafen or both
compound,measurement,setting,value
"Cn1cc(C(=O)Nc2ccc(F)cc2-c2ccc(Cl)c(Cl)c2)c(C(F)F)n1 [Bixafen, bixafen]",Number of moulded strawberries/total number of 10 strawberries,"[1]; Day 3, 20° C., 250 ppm natamycin, 250 ppm bixafen or both",9 and 9/10
same,Number of moulded strawberries/total number of 10 strawberries,"[1]; Day 3, 20° C., 500 ppm natamycin, 2000 ppm bixafen or both",8 and 8/10
same,Number of moulded strawberries/total number of 10 strawberries,"[1]; Day 4, 20° C., 250 ppm natamycin, 250 ppm bixafen or both",9 and 9/10
same,Number of moulded strawberries/total number of 10 strawberries,"[1]; Day 4, 20° C., 500 ppm natamycin, 2000 ppm bixafen or both",9 and 9/10
same,Number of moulded strawberries/total number of 10 strawberries,"[1]; Day 5, 20° C., 250 ppm natamycin, 250 ppm bixafen or both",10 and 10/10
same,Number of moulded strawberries/total number of 10 strawberries,"[1]; Day 5-6, 20° C., 500 ppm natamycin, 2000 ppm bixafen or both",10 and 10/10
same,Observed antifungal activity O (%),[1]; [6],62%
same,Observed antifungal activity O (%),[1]; [7],47%
same,Observed antifungal activity O (%),[1]; [8],65%
same,Observed antifungal activity O (%),[1]; [9],55%
same,Observed antifungal activity O (%),"[1]; day 5, 250 ppm natamycin, 250 ppm bixafen or both",33%
same,Observed antifungal activity O (%),"[1]; day 5, 500 ppm natamycin, 2000 ppm bixafen or both",34%
same,Observed antifungal activity O (%),[1]; [10],23%
same,Observed antifungal activity O (%),[1]; [11],33%
same,Observed antifungal activity O (%),[1]; [12],27%
same,Observed antifungal activity O (%),[1]; [13],10%
same,Observed antifungal activity O (%),[1]; [14],12%
same,Observed antifungal activity O (%),"[1]; day 7, 500 ppm natamycin, 2000 ppm bixafen or both",12%
same,Observed antifungal activity O (%),[1]; [15],5%
same,Observed antifungal activity O (%),[1]; [16],3%
same,Observed antifungal activity O (%),"[1]; day 10, 250 ppm natamycin, 500 ppm bixafen or both",0%
same,Observed antifungal activity O (%),"[2]; day 3, 500 ppm natamycin",72%
same,Number of moulded wounds/total number of 10 wounds,"[2]; day 5, 20° C., 250 ppm natamycin",8 and 8/10
same,Observed antifungal activity O (%),"[2]; day 5, 500 ppm natamycin",55%
same,Observed antifungal activity O (%),"[2]; day 6, 500 ppm natamycin",35%
same,Observed antifungal activity O (%),"[3]; day 3, 250 ppm natamycin, 250 ppm bixafen or both",65%
same,Observed antifungal activity O (%),[3]; [7],27%
same,Observed antifungal activity O (%),[3]; [8],40%
same,Observed antifungal activity O (%),"[3]; day 4, 500 ppm natamycin, 1000 ppm bixafen or both",37%
same,Observed antifungal activity O (%),[3]; [9],47%
same,Observed antifungal activity O (%),[3]; [10],28%
same,Observed antifungal activity O (%),[3]; [11],26%
same,Observed antifungal activity O (%),[3]; [17],22%
same,Observed antifungal activity O (%),[3]; [12],32%
same,Observed antifungal activity O (%),[3]; [13],10%
same,Observed antifungal activity O (%),[3]; [14],10%
same,Observed antifungal activity O (%),"[3]; day 7, 500 ppm natamycin, 1000 ppm bixafen or both",6%
same,Observed antifungal activity O (%),"[3]; day 9, 250 ppm natamycin, 250 ppm bixafen or both",0%
same,Observed antifungal activity O (%),[3]; [15],0%
same,Observed antifungal activity O (%),[3]; [18],2%
same,Observed antifungal activity O (%),[3]; [16],7%
same,Observed antifungal activity O (%),"[3]; day 11, 250 ppm natamycin, 500 ppm bixafen or both",0%
same,Observed antifungal activity O (%),[3]; [19],9%
same,Observed antifungal activity O (%),"[3]; day 13, 250 ppm natamycin, 500 ppm bixafen or both",0%
same,Observed antifungal activity O (%),[3]; [20],0%
same,Observed antifungal activity O (%),[3]; [21],3%
same,Observed antifungal activity O (%),"[3]; day 15, 250 ppm natamycin, 500 ppm bixafen or both",0%
same,Observed antifungal activity O (%),"[3]; day 15, 500 ppm natamycin, 1000 ppm bixafen or both",0%
same,Observed antifungal activity O (%),"[3]; day 15, 500 ppm natamycin, 2000 ppm bixafen or both",0%
same,Number of moulded apples/total number of 10 apples,"[4]; Day 3, 20° C., 1000 ppm bixafen or both",6 and 6/10
same,Number of moulded apples/total number of 10 apples,"[4]; Day 3-4, 20° C., 2000 ppm bixafen or both",5/10
same,Number of moulded apples/total number of 10 apples,"[4]; Day 4, 20° C., 1000 ppm bixafen or both",6 and 6/10
same,Number of moulded apples per total of 10 apples,"[4]; Day 6, 20° C., 500 ppm bixafen or both",10 and 10/10
same,Number of moulded apples/total number of 10 apples,"[4]; Day 6, 20° C., 1000 ppm bixafen or both",8 and 8/10
same,Number of moulded apples/total number of 10 apples,"[4]; Day 6, 20° C., 2000 ppm bixafen or both",8 and 8/10
same,Number of moulded apples per total of 10 apples,"[4]; Day 6-9, 20° C., 250 ppm bixafen or both",all and 10/10
same,Number of moulded apples per total of 10 apples,"[4]; Day 7, 20° C., 500 ppm bixafen or both",10 and 10/10
same,Number of moulded apples/total number of 10 apples,"[4]; Day 7, 20° C., 1000 ppm bixafen or both",9 and 9/10
same,Number of moulded apples/total number of 10 apples,"[4]; Day 7, 20° C., 2000 ppm bixafen or both",8 and 8/10
same,Number of moulded apples per total of 10 apples,"[4]; Day 9, 20° C., 500 ppm bixafen or both",10 and 10/10
same,Number of moulded apples/total number of 10 apples,"[4]; Day 9-14, 20° C., 1000 ppm bixafen or both",all and 10/10
same,Number of moulded apples/total number of 10 apples,"[4]; Day 9-14, 20° C., 2000 ppm bixafen or both",all and 10/10
same,Number of moulded apples per total of 10 apples,"[4]; Day 11-15, 20° C., 250 ppm bixafen or both",all and 10/10
same,Observed antifungal activity O (%),"[4]; day 3, 500 ppm natamycin, 1000 ppm bixafen or both",47%
same,Observed antifungal activity O (%),[4]; [6],60%
same,Observed antifungal activity O (%),"[4]; day 6, 250 ppm natamycin, 250 ppm bixafen or both (bixafen 500 ppm)",17%
same,Observed antifungal activity O (%),[4]; [11],33%
same,Observed antifungal activity O (%),[4]; [17],44%
same,Observed antifungal activity O (%),[4]; [12],39%
same,Observed antifungal activity O (%),[4]; [14],39%
same,Observed antifungal activity O (%),"[4]; day 9, 250 ppm natamycin, 250 ppm bixafen or both (bixafen 500 ppm)",13%
same,Observed antifungal activity O (%),[4]; [15],17%
same,Observed antifungal activity O (%),[4]; [18],38%
same,Observed antifungal activity O (%),[4]; [16],29%
same,Observed antifungal activity O (%),"[4]; day 11, 250 ppm natamycin, 250 ppm bixafen or both (bixafen 500 ppm)",0%
same,Observed antifungal activity O (%),"[4]; day 11, 500 ppm natamycin, 1000 ppm bixafen or both",30%
same,Observed antifungal activity O (%),[4]; [19],30%
same,Observed antifungal activity O (%),"[4]; day 14, 250 ppm natamycin, 250 ppm bixafen or both (bixafen 500 ppm)",6%
same,Observed antifungal activity O (%),[4]; [20],21%
same,Observed antifungal activity O (%),[4]; [21],36%
same,Observed antifungal activity O (%),[5],50%
